The source of these data is PubChem BioAssay AID328 (DTP/NCI, 2004).

“And” between values parts separate entries of the source, which are not always exact repeats. Equal values may be shown once. Inconclusive results and toxic doses are left out.

The experiment has as its system BDF1 mice, P388 leukemia ip, median survival T/C. Description: NCI In Vivo Anticancer Drug Screen. Data for tumor model P388 Leukemia (intraperitoneal) in B6D2F1 (BDF1) mice. The settings on record: endpoint: median survival time, higher = longer survival. The procedure, abridged: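 T/C = treated-group survival ÷ vehicle-control survival; tumour transplanted into mice before dosing.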

Setting [1] is: dose: 50.0 mg/kg/injection, schedule: Q01DX009 (ip), vehicle: saline.
[2] abbreviates: dose: 100.0 mg/kg/injection, schedule: Q01DX009 (ip), vehicle: saline.
The mark [3] stands for this setting: dose: 50.0 mg/kg/injection, schedule: Q01DX009 (ip), vehicle: saline with Tween-80.
Setting [4] is: dose: 25.0 mg/kg/injection, schedule: Q04DX003 (ip), vehicle: Klucel (hydroxypropylcellulose) (HPC).
Setting [5] is: dose: 50.0 mg/kg/injection, schedule: Q04DX003 (ip), vehicle: Klucel (hydroxypropylcellulose) (HPC).
Where [6] appears, read: dose: 25.0 mg/kg/injection, schedule: Q01DX009 (ip), vehicle: saline.
Setting [7] is: dose: 100.0 mg/kg/injection, schedule: Q04DX003 (ip), vehicle: saline with Tween-80.
[8] abbreviates: dose: 200.0 mg/kg/injection, schedule: Q04DX003 (ip), vehicle: saline with Tween-80.
[9] abbreviates: dose: 400.0 mg/kg/injection, schedule: Q04DX003 (ip), vehicle: saline with Tween-80.
Setting [10] is: dose: 100.0 mg/kg/injection, schedule: Q01DX009 (ip), vehicle: saline with Tween-80.
The mark [11] stands for this setting: dose: 200.0 mg/kg/injection, schedule: Q01DX009 (ip), vehicle: saline with Tween-80.
[12] abbreviates: dose: 100.0 mg/kg/injection, schedule: Q01DX009 (ip), vehicle: Klucel (hydroxypropylcellulose) (HPC).

As for `CC1C=CC(=O)O1` (stereo not drawn), the T/C by setting is: under setting [1], 105 % of control; under setting [2], 105 % of control; (dose: 200.0 mg/kg/injection, schedule: Q01DX009 (ip), vehicle: saline) 112 % of control; (dose: 400.0 mg/kg/injection, schedule: Q01DX009 (ip), vehicle: saline) 112 % of control.
`OC(c1cc(-c2ccc(C(F)(F)F)cc2)nc(C(F)(F)F)c1)C1CCCCN1` (stereo not drawn): the T/C under setting [3] is 108 % of control.
Consider `ClCCN(CCCl)CCN1c2ccccc2Sc2ccccc21`, for which the T/C reads like this: (dose: 0.79 mg/kg/injection, schedule: Q01DX009 (ip), vehicle: Klucel (hydroxypropylcellulose) (HPC)) 90 % of control; (dose: 1.1 mg/kg/injection, schedule: Q01DX009 (ip), vehicle: Klucel (hydroxypropylcellulose) (HPC)) 90 % of control; (dose: 2.5 mg/kg/injection, schedule: Q01DX009 (ip), vehicle: saline with Tween-80) 150 % of control; (dose: 4.0 mg/kg/injection, schedule: Q01DX009 (ip), vehicle: Klucel (hydroxypropylcellulose) (HPC)) 170 % of control; (dose: 5.0 mg/kg/injection, schedule: Q01DX009 (ip), vehicle: saline with Tween-80) 186 % of control; (dose: 9.37 mg/kg/injection, schedule: Q01DX009 (ip), vehicle: Klucel (hydroxypropylcellulose) (HPC)) 150 % of control. Also, the T/C reads like this: (dose: 10.0 mg/kg/injection, schedule: Q01DX009 (ip), vehicle: saline with Tween-80) 186 % of control; (dose: 12.5 mg/kg/injection, schedule: Q04DX003 (ip), vehicle: Klucel (hydroxypropylcellulose) (HPC)) 160 % of control; (dose: 17.0 mg/kg/injection, schedule: Q04DX003 (ip), vehicle: Klucel (hydroxypropylcellulose) (HPC)) 166 % of control; (dose: 17.5 mg/kg/injection, schedule: Q04DX003 (ip), vehicle: Klucel (hydroxypropylcellulose) (HPC)) 185 % of control; (dose: 20.0 mg/kg/injection, schedule: Q01DX009 (ip), vehicle: saline with Tween-80) 95 % of control; (dose: 23.0 mg/kg/injection, schedule: Q04DX003 (ip), vehicle: Klucel (hydroxypropylcellulose) (HPC)) 109 % of control. For the same compound, the T/C is, setting by setting: under setting [4], 175 % of control and 200 % of control; (dose: 35.0 mg/kg/injection, schedule: Q04DX003 (ip), vehicle: Klucel (hydroxypropylcellulose) (HPC)) 109 % of control and 210 % of control; (dose: 37.0 mg/kg/injection, schedule: Q04DX003 (ip), vehicle: Klucel (hydroxypropylcellulose) (HPC)) 185 % of control; (dose: 37.5 mg/kg/injection, schedule: Q01DX009 (ip), vehicle: Klucel (hydroxypropylcellulose) (HPC)) 170 % of control; under setting [5], 109 % of control; (dose: 50.0 mg/kg/injection, schedule: Q04DX003 (ip), vehicle: saline with Tween-80) 104 % of control.
For the compound `COc1cc2c(cc1OC)C(CCN1C(=O)c3ccccc3C1=O)=NCC2`, the T/C (dose: 12.5 mg/kg/injection, schedule: Q01DX009 (ip), vehicle: saline) was 91 % of control; the T/C under setting [6] is 87 % of control; the T/C (dose: 25.0 mg/kg/injection, schedule: Q04DX003 (ip), vehicle: saline) is 100 % of control; the T/C (dose: 50.0 mg/kg/injection, schedule: Q04DX003 (ip), vehicle: saline) was 95 % of control.
With `S=c1nc(COc2ccccc2Cl)[nH][nH]1`, the T/C is 100 % of control under setting [7], 109 % of control under setting [8] and 104 % of control under setting [9].
With `O=C1C(Br)=Cc2cccc3cccc1c23`, the T/C is, setting by setting: (dose: 25.0 mg/kg/injection, schedule: Q01DX009 (ip), vehicle: saline with Tween-80) 111 % of control; under setting [3], 105 % of control; under setting [10], 107 % of control; under setting [7], 95 % of control; under setting [11], 230 % of control and 107 % of control; under setting [8], 104 % of control. Moreover, the T/C is, setting by setting: (dose: 400.0 mg/kg/injection, schedule: Q01DX009 (ip), vehicle: saline with Tween-80) 100 % of control; under setting [9], 104 % of control.
`CC1(C)N=C(N)N=C(N)N1c1ccc(F)cc1`: the T/C (dose: 50.0 mg/kg/injection, schedule: Q01DX005 (ip), vehicle: Klucel (hydroxypropylcellulose) (HPC)) was 117 % of control.
`COc1ccccc1Cc1c(OC)cc(OC)c(C(=O)CCc2ccccc2)c1O`: the T/C is 103 % of control (dose: 0.5 mg/kg/injection, schedule: Q01DX009 (ip), vehicle: saline) and 106 % of control (dose: 1.0 mg/kg/injection, schedule: Q01DX009 (ip), vehicle: saline).
In the case of `Cc1ccc([N+](=O)[O-])cc1NC(=O)SCCOC(=O)COc1ccc(Cl)cc1Cl`, the T/C by setting is: under setting [7], 86 % of control; under setting [8], 100 % of control; under setting [9], 90 % of control.
Regarding `CCOC(=O)c1ccc(C(=O)OCC)c(Cl)n1`, the T/C runs as follows: (dose: 25.0 mg/kg/injection, schedule: Q01DX009 (ip), vehicle: Klucel (hydroxypropylcellulose) (HPC)) 112 % of control; under setting [4], 95 % of control; (dose: 50.0 mg/kg/injection, schedule: Q01DX009 (ip), vehicle: Klucel (hydroxypropylcellulose) (HPC)) 95 % of control; under setting [5], 100 % of control; under setting [12], 87 % of control; (dose: 100.0 mg/kg/injection, schedule: Q04DX003 (ip), vehicle: Klucel (hydroxypropylcellulose) (HPC)) 86 % of control and 91 % of control.
With `S=C1SCN(Cc2cccs2)CN1Cc1cccs1`, the T/C was 99 % of control (dose: 50.0 mg/kg/injection, schedule: Q01DX005 (ip), vehicle: saline with Tween-80); 87 % of control (dose: 100.0 mg/kg/injection, schedule: Q01DX005 (ip), vehicle: saline with Tween-80); 95 % of control (dose: 200.0 mg/kg/injection, schedule: Q01DX005 (ip), vehicle: saline with Tween-80).
Turning to `CCC[CH2][Sn]1([CH2]CCC)[S]CC[N]1S(=O)(=O)c1ccc(C)cc1`, where the note is “dose: 3.0 mg/kg/injection, schedule: Q01DX009 (ip), vehicle: gum acacia”, the T/C was 119 % of control.
`COc1cc2oc3ccccc3c(=O)c2cc1CSc1ccccc1N`: the T/C under setting [3] is 123 % of control, the T/C under setting [10] is 88 % of control and the T/C under setting [11] was 90 % of control.
As to `CC1(C)CC(C)(c2ccccc2)c2ccccc21` (stereo not drawn), the T/C is 120 % of control under setting [12]; 109 % of control (dose: 100.0 mg/kg/injection, schedule: Q04DX003 (ip), vehicle: other); 90 % of control (dose: 132.0 mg/kg/injection, schedule: Q01DX009 (ip), vehicle: Klucel (hydroxypropylcellulose) (HPC)); 114 % of control (dose: 200.0 mg/kg/injection, schedule: Q04DX003 (ip), vehicle: other); 100 % of control (dose: 300.0 mg/kg/injection, schedule: Q01DX009 (ip), vehicle: Klucel (hydroxypropylcellulose) (HPC)); 104 % of control (dose: 400.0 mg/kg/injection, schedule: Q04DX003 (ip), vehicle: other).
As for `CC1=Nc2ccccc2N(C)/C1=C/C1=C(Cl)C(=O)c2ccccc2C1=O`, the T/C is 103 % of control (dose: 25.0 mg/kg/injection, schedule: Q01DX001 (ip), vehicle: saline with Tween-80); 94 % of control (dose: 50.0 mg/kg/injection, schedule: Q01DX001 (ip), vehicle: saline with Tween-80); 108 % of control (dose: 100.0 mg/kg/injection, schedule: Q01DX001 (ip), vehicle: saline with Tween-80).
For the compound `O=[N+]([O-])c1ccc2nnn(OC3CCCC3)c2c1`, the T/C reads like this: under setting [7], 98 % of control; under setting [8], 101 % of control; under setting [9], 88 % of control.
For the compound `O=C(Nc1ccc(S(=O)(=O)O)cc1)c1ccc([N+](=O)[O-])cc1`, the T/C under setting [6] was 100 % of control; the T/C under setting [1] is 100 % of control; the T/C under setting [2] was 100 % of control; the T/C (dose: 100.0 mg/kg/injection, schedule: Q04DX003 (ip), vehicle: saline) was 100 % of control; the T/C (dose: 176.0 mg/kg/injection, schedule: Q04DX003 (ip), vehicle: saline with Tween-80) is 100 % of control; the T/C (dose: 200.0 mg/kg/injection, schedule: Q04DX003 (ip), vehicle: saline) was 100 % of control. Besides, the T/C (dose: 264.0 mg/kg/injection, schedule: Q04DX003 (ip), vehicle: saline with Tween-80) was 110 % of control; the T/C (dose: 264.0 mg/kg/injection, schedule: Q04DX003 (ip), vehicle: saline) was 95 % of control and 120 % of control; the T/C under setting [9] is 100 % of control.
